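Five compound concentrations were applied to cells in 96-well plates for 48 hours; endpoints were derived by simple linear interpolation of the resulting dose-response curve. TGI marks complete inhibition of growth.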
Legend:
Test in all cases: DTP human tumour cell line panel, 48 h
[1] = tested on: SF-268 CNS
[2] = tested on: U251 CNS
[3] = tested on: OVCAR-3 ovarian
[4] = tested on: NCI-H23 lung
[5] = tested on: HCT-116 colon
[6] = tested on: EKVX NSCLC
[7] = tested on: IGROV1 ovarian
[8] = tested on: OVCAR-4 ovarian
[9] = tested on: NCI-H226 lung
[10] = tested on: K-562 leukemia
[11] = tested on: UACC-257 melanoma
[12] = tested on: SK-MEL-28 melanoma
[13] = tested on: A498 renal
[14] = tested on: HS 578T breast
[15] = tested on: SW-620 colon
[16] = tested on: SF-539 CNS
[17] = tested on: KM12 colon
[18] = tested on: SK-MEL-2 melanoma
[19] = tested on: RXF 393 renal
[20] = tested on: CAKI-1 renal
[21] = tested on: SNB-75 CNS
[22] = tested on: UO-31 renal
[23] = tested on: NCI-H522 lung
[24] = tested on: HCC-2998 colon
[25] = tested on: MDA-MB-435
[26] = tested on: COLO 205 colon
[27] = tested on: MALME-3M melanoma
[28] = tested on: HL-60(TB) leukemia
[29] = tested on: HOP-92 NSCLC
[30] = tested on: OVCAR-5 ovarian
[31] = tested on: CCRF-CEM leukemia
[32] = tested on: OVCAR-8 ovarian
[33] = tested on: 786-0 renal
[34] = tested on: SN12C renal
[35] = tested on: MOLT-4 leukemia
[36] = tested on: MDA-MB-231 breast
[37] = tested on: ACHN renal
[38] = tested on: A549 NSCLC
[39] = tested on: LOX IMVI melanoma
[40] = tested on: HT29 colon
[41] = tested on: M14 melanoma
[42] = tested on: SNB-19 CNS
[43] = tested on: PC-3 prostate
[44] = tested on: T-47D breast
[45] = tested on: SF-295 CNS
[46] = tested on: HCT-15 colon
[47] = tested on: NCI/ADR-RES ovarian
[48] = tested on: RPMI-8226 leukemia
[49] = tested on: SK-OV-3 ovarian
[50] = tested on: SK-MEL-5 melanoma
[51] = tested on: HOP-62 NSCLC
[52] = tested on: MCF7 breast
[53] = tested on: MDA-N
[54] = tested on: DU-145 prostate
[55] = tested on: TK-10 renal
[56] = tested on: UACC-62 melanoma
[57] = tested on: SR leukemia
[58] = tested on: NCI-H460 lung

Measured: TGI

CCC#CCCCCCCCCC(F)C(=O)O (centres undefined)
> 100 µM: [1] | [2] | [3] | [4] | [5] | [6] | [7] | [8] | [9] | [10] | [11] | [12] | [13] | [14] | [15] | [16] | [17] | [18] | [19] | [20] | [21] | [22] | [23] | [24] | [25] | [26] | [27] | [28] | [29] | [30] | [31] | [32] | [33] | [34] | [35] | [36] | [37] | [38] | [39] | [40] | [41] | [42] | [43] | [44] | [45] | [46] | [47] | [48] | [49] | [50] | [51] | [52] | [53] | [54] | [55]

CNc1cc(N)ccc1C(=O)N1CCC[C@H]1CO
> 100 µM: [1] | [2] | [3] | [5] | [6] | [7] | [9] | [56] | [10] | [11] | [12] | [13] | [57] | [14] | [15] | [16] | [58] | [17] | [18] | [21] | [22] | [23] | [25] | [29] | [30] | [32] | [33] | [34] | [35] | [36] | [37] | [38] | [39] | [40] | [41] | [42] | [43] | [44] | [45] | [46] | [47] | [48] | [49] | [51] | [52] | [53] | [54] | [55]

Cc1c(C(=O)C(=O)c2ccccc2)c(C)c(C(=O)C(=O)c2ccccc2)c(C)c1C(=O)C(=O)c1ccccc1
> 100 µM: [1] | [2] | [5] | [6] | [7] | [8] | [10] | [11] | [12] | [57] | [14] | [15] | [16] | [58] | [17] | [21] | [22] | [23] | [24] | [25] | [26] | [28] | [30] | [31] | [32] | [33] | [34] | [35] | [36] | [37] | [38] | [40] | [41] | [42] | [43] | [44] | [45] | [46] | [47] | [48] | [49] | [50] | [51] | [52] | [53] | [55]
